From paper PMC9775433 (Cancers, 2022)
Values joined by “and” are separate entries in the source; they are usually repeats but may differ in a detail not shown here. Equal values may be shown once.

Key:
CLK1 = tested on: CLK1; set-up: method as in earlier work; conditions: cited from earlier work
MAP4K4 = tested on: MAP4K4; set-up: method as in earlier work; conditions: cited from earlier work
refractory solid tumors = test: Phase I trial outcome (PFS, OS); assay type: in vivo, human; conditions: individual patient
Method: All patients provided written informed consent before entering the study. The study was conducted in accordance with the Declaration of Helsinki and with the principles of the International Conference on Harmonization Guidelines for Good Clinical Practice. The study protocol was approved by the local institutional board and an independent Ethics Committee.
Patients continued treatment until progression, intolerance, or withdrawal of consent. The primary outcomes of the phase I clinical trial were described previously.
Efficacy was assessed in patients who completed at least two weeks of treatment. […] Statistical significance was set at p < 0.05. All statistical analyses were performed in SPSS, version 25.

SMILES: CCN(CC)CCNC(=O)c1c(C)[nH]c(/C=C2\C(=O)Nc3ccc(F)cc32)c1C [sunitinib]
- OS (refractory solid tumors; 200 mg O1W): 119 days and 134 days
- PFS (refractory solid tumors; 200 mg O1W): 77 days and 82 days
- OS (refractory solid tumors; 300 mg O2W): 78 days and 76 days
- PFS (refractory solid tumors; 300 mg O2W): 58 days and 61 days
- OS (refractory solid tumors; 400 mg O1W): 26 days and 261 days and 817 days and 151 days and 132 days and 237 days and 169 days
- PFS (refractory solid tumors; 400 mg O1W): 23 days and 239 days and 68 days and 51 days and 160 days
- OS (refractory solid tumors; 400 mg O2W): 185 days and 23 days and 194 days
- PFS (refractory solid tumors; 400 mg O2W): 57 days
- OS (refractory solid tumors; 500 mg O2W): 257 days and 427 days
- PFS (refractory solid tumors; 500 mg O2W): 57 days and 176 days and 54 days
- OS (refractory solid tumors; 600 mg O2W): 353 days and 342 days
- PFS (refractory solid tumors; 600 mg O2W): 56 days and 331 days and 93 days
- OS (refractory solid tumors; 700 mg O2W): 86 days and 150 days and 428 days and 170 days and 91 days and 57 days and 142 days and 40 days and 526 days and 232 days and 125 days and 486 days and 400 days and 169 days and 74 days and 419 days and 148 days and 184 days and 333 days and 596 days and 93 days
- PFS (refractory solid tumors; 700 mg O2W): 56 days and 77 days and 245 days and 170 days and 14 days and 57 days and 26 days and 168 days and 64 days and 60 days and 45 days and 334 days and 197 days and 318 days and 84 days
- OS (refractory solid tumors; 800 mg O2W): 89 days and 32 days and 45 days and 243 days and 63 days and 62 days
- PFS (refractory solid tumors; 800 mg O2W): 56 days and 194 days and 42 days
